Reference: patent publication US20110319392A1, “Thiazole Sulfonamide And Oxazole Sulfonamide Kinase Inhibitors” (priority 2009, published 2011)
Structures can show the parent of a compound that is named as a salt.

Tests used:
[1] = tested on: A375P F11s tumor cells; assay: Cell growth inhibition assay (CellTiter-Glo), A375P F11s; format: cell-based, Human; conditions: Homo sapiens
Method: Human breast tumor cells (BT474) were cultured in RPMI (Mediatech […]), containing 10% FBS (JRH Biosciences 12176) and 1% penicillin-streptomycin (Invitrogen 15140). Human head and neck tumor cells (HN5) were cultured in high glucose DMEM (Mediatech 50-013-PB) containing 10% FBS and 1% penicillin-streptomycin. Human colon tumor cells (Colo205) were cultured in RPMI (Mediatech 50-020-PB) containing 10% FBS and 1% penicillin-streptomycin. Human melanoma cancer cells (SK-MEL-28) were cultured in EMEM with nonessential amino acids (Mediatech 50-011-PB) containing 10% FBS, 1% sodium pyruvate (JT Baker 3354-04), and 1% penicillin-streptomycin. Human melanoma cancer cells (A375P F11s) were cultured in RPMI (Mediatech 50-020-PB) containing 10% FBS, 1% sodium pyruvate, and 1% penicillin-streptomycin. Human colon cancer cells (HT-29) were cultured in high glucose DMEM (Mediatech 50-013-PB) containing 10% FBS and 1% penicillin-streptomycin. Human melanoma cancer cells (SK-MEL-3) were cultured in McCoy's 5A (50-025-PB) containing 15% FBS, and 1% penicillin-streptomycin. All cell lines were maintained at 37° C. in a humidified 5% CO2, 95% air incubator. Cells were harvested using trypsin/EDTA (Invitrogen 25200), counted using a haemocytometer, and plated. For 96-well assays (using white full-area NUNC plates cat. #136102), cells were plated in 105 μL at the following densities (cells/well): HNS, 500; Colo 205, 500; SK-MEL-28, 500; A375P F11s, 500; HT-29, 500; SK-MEL-3, 500; and BT474, 3000. For 384-well assays (white full-area NUNC plates, cat. #781080), cells were plated in 48 μL at the following densities (cells/well): HNS, 500; Colo205, 500; SK-MEL-28, 500; A375P F11s, 500; HT-29, 500; SK-MEL-3, 500; and BT474, 2000.
The next day, compounds were diluted as follow: For 96-well assays, 13.5 μL of compound in DMSO were diluted using nine (9) serial 1:3 dilutions of 4.5 μL in 9 of DMSO. Medium (270 μL/well of RPMI with 10% FBS and 1% penicillin-streptomycin) was added to the plates. Aliquots (7 μL) were added to cells in the final assay giving a final DMSO concentration of 0.2%. For 384-well assays, 15 μL of compound in DMSO were diluted using nine (9) serial 1:3 dilutions of 5 μL in 10 μL of DMSO, followed by a further dilution of 5 μL of compound with 95 μL of medium, of which 2 μL were added to cells in the final assay giving a final DMSO concentration of 0.2%. Cells were incubated at 37° C., 5% CO2 for 3 days.
Total ATP was measured (as a surrogate estimate of cell number) using CellTiter-Glo® reagent (Promega G7571). Briefly, plates were removed from the incubator and allowed to equilibrate to room temperature for 30 minutes. CellTiter-Glo® (25 μL or 55 μL for 384-well or 96-well assays, respectively) reagent was added to each well and plates were shaken on an orbital plate shaker for 2 minutes. Plates were incubated without shaking for a further 30 minutes and read on an LJL Analyst GT reader in luminometer mode with an integration time of 0.5 seconds per well. Percent inhibition of cell growth was calculated relative to DMSO vehicle-treated control wells. Concentration of compound required to give 50% inhibition of vehicle-treated control cell growth (IC50) was interpolated using a 4-parameter fit for determining IC50 using the following equation: Y=A +((B−A)/(1+((C/X)̂D))) where […].

[2] = biological target: B-Raf (Homo sapiens, UniProt P15056); assay: B-Raf Accelerated MEK ATPase assay (BRAMA), Method A or B; format: biochemical; conditions: Method B: final MEK 150 nM, single end point read
Procedure, shortened: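 Activated Raf plus non-phosphorylated MEK drives MEK-mediated ATP hydrolysis; ADP formation coupled via pyruvate kinase/lactate dehydrogenase to NADH oxidation. Method A read kinetically; Method B used 150 nM final MEK and a single end-point read.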

Chain of B-Raf (P15056 whole entry): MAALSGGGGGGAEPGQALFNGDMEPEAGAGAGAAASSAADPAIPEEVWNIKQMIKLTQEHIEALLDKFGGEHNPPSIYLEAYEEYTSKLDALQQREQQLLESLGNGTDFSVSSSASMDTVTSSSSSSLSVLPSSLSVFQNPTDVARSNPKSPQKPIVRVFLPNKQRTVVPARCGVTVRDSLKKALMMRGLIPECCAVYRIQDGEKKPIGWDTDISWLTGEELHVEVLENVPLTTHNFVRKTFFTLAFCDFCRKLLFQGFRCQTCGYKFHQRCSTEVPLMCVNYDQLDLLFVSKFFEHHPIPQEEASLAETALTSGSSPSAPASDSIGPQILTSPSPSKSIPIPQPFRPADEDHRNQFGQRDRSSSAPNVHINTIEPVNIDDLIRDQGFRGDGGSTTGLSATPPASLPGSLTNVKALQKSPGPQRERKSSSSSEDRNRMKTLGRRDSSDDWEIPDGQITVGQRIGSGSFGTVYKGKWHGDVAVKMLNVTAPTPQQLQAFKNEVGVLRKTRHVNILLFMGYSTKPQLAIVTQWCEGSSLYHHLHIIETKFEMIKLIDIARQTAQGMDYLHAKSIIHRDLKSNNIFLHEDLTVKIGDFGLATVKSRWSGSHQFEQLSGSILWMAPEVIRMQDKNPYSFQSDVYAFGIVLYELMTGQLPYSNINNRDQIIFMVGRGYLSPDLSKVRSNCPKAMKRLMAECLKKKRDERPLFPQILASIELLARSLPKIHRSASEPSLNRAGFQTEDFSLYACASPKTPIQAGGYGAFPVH

Compound | IC50 [1] [µM] | IC50 [2] [µM]
CC(C)(C)c1nc(-c2ccc(F)c(NS(=O)(=O)c3c(F)cccc3F)c2)c(-c2ccnc(Nc3ccc(N4CCOCC4)nc3)n2)s1 [Example 28, N-{5-[2-(1,1-Dimethylethyl)-5-(2-{[[6-(4-morpholinyl)-3-pyridinyl]amino}-4-pyrimidinyl)-1,3-thiazol-4-yl]-2-fluorophenyl]-2,6-difluorobenzenesulfonamide hydrochloride] | < 0.1 | < 0.1
CC(C)c1nc(-c2cccc(NS(=O)(=O)c3c(F)cccc3F)c2F)c(-c2ccnc(Nc3ccc(N4CCN(CCF)CC4)c(F)c3)n2)s1 [Example 29, 2,6-Difluoro-N-{2-fluoro-3-[5-[2-({3-fluoro-4-[4-(2-fluoroethyl)-1-piperazinyl]phenyl}amino)-4-pyrimidinyl]-2-(1-methylethyl)-1,3-thiazol-4-yl]phenyl}benzenesulfonamide] | < 0.1 | < 0.1
CC(C)c1nc(-c2cncc(NS(=O)(=O)c3c(F)cccc3F)c2)c(-c2ccnc(Nc3ccc(N4CCOCC4)nc3)n2)s1 [Example 47] | < 0.1 | < 0.1
COc1ccc(Nc2nccc(-c3sc(C(C)C)nc3-c3cccc(NS(=O)(=O)c4ccccc4)c3)n2)cc1N1CCN(CCC#N)CC1 [Example 9, N-{3-[5-(2-{[3-[4-(2-Cyanoethyl)-1-piperazinyl]-4-(methyloxy)phenyl]amino}-4-pyrimidinyl)-2-(1-methylethyl)-1,3-thiazol-4-yl]phenyl}benzenesulfonamide] | < 0.1 | < 0.1
CC(C)c1nc(-c2cccc(NS(=O)(=O)c3c(F)cccc3F)c2)c(-c2ccnc(Nc3ccc(N4CCOCC4)nc3)n2)s1 [Example 17, 2,6-Difluoro-N-{3-[2-(1-methylethyl)-5-(2-{[6-(4-morpholinyl)-3-pyridinyl]amino}-4-pyrimidinyl)-1,3-thiazol-4-yl]phenyl}benzenesulfonamide] | < 0.1 | < 0.1
CC(C)c1nc(-c2cccc(NS(=O)(=O)c3c(F)cccc3F)c2F)c(-c2ccnc(Nc3cnc(N4CCOCC4)c(F)c3)n2)s1 [Example 30, 2,6-Difluoro-N-{2-fluoro-3-[5-(2-{[5-fluoro-6-(4-morpholinyl)-3-pyridinyl]amino}-4-pyrimidinyl)-2-(1-methylethyl)-1,3-thiazol-4-yl]phenyl}benzenesulfonamide] | < 0.1 | < 0.1
CC(C)c1nc(-c2ccnc(NS(=O)(=O)c3c(F)cccc3F)c2)c(-c2ccnc(Nc3ccc(N4CCOCC4)nc3)n2)s1 [Example 32, 2,6-Difluoro-N-{4-[2-(1-methylethyl)-5-(2-{[6-(4-morpholinyl}-3-pyridinyl]amino}-4-pyrimidinyl)-1,3-thiazol-4-yl]-2-pyridinyl}benzenesulfonamide] | < 0.1 | < 0.1
CC(C)(C)c1nc(-c2ccc(F)c(NS(=O)(=O)c3c(F)cccc3F)c2)c(-c2ccnc(Nc3ccc(N4CCN(CCF)CC4)c(F)c3)n2)s1 [Example 99] | 0.1 to 1 | < 0.1
CN(C)c1nc(-c2ccc(F)c(NS(=O)(=O)c3c(F)cccc3F)c2)c(-c2ccnc(Nc3ccc(N4CCOCC4)nc3)n2)s1 [Example 27, N-{5-[2-(Dimethylamino)-5-(2-{[6-(4-morpholinyl)-3-pyridinyl]amino}-4-pyrimidinyl)-1,3-thiazol-4-yl]-2-fluorophenyl}-2,6-difluorobenzenesulfonamide] | < 0.1 | < 0.1
CC(C)c1nc(-c2ccc(F)c(NS(=O)(=O)c3c(F)cccc3F)c2)c(-c2ccnc(Nc3ccncc3)n2)s1 [Example 102] | 0.1 to 1 | < 0.1

The next lines start with the values.

IC50 [1] [µM] | IC50 [2] [µM] | Compound
< 0.1 | < 0.1 | CC(C)c1nc(-c2cccc(NS(=O)(=O)c3c(F)cccc3F)c2)c(-c2ccnc(Nc3ccc(OC4CCN(CCS(C)(=O)=O)CC4)c(F)c3)n2)s1 [Example 13, 2,6-Difluoro-N-{3-[5-(2-{[3-fluoro-4-({1-[2-(methylsulfonyl)ethyl]-4-piperidinyl}oxy)phenyl]amino}-4-pyrimidinyl)-2-(1-methylethyl)-1,3-thiazol-4-yl]phenyl}benzenesulfonamide hydrochloride]
0.1 to 1 | 0.1 to 1 | O=S(=O)(Nc1cc(-c2nc(N3CCCC3)oc2-c2ccnc(Nc3ccc(N4CCN(CCF)CC4)c(F)c3)n2)ccc1F)c1c(F)cccc1F [Example 114]
0.1 to 1 | < 0.1 | CC(C)c1nc(-c2cccc(NS(=O)(=O)c3c(F)cccc3F)c2)c(-c2ccnc(Nc3ccc(N4CCOCC4)c(F)c3)n2)o1 [Example 57]
< 0.1 | < 0.1 | CC(C)c1nc(-c2cccc(NS(=O)(=O)c3ccco3)c2)c(-c2ccnc(Nc3ccc(N4CCOCC4)nc3)n2)s1 [Example 53]
0.1 to 1 | 0.1 to 1 | COc1cc(N2CCN(CCS(C)(=O)=O)CC2)c(C)cc1Nc1nccc(-c2sc(N3CCOCC3)nc2-c2cccc(NS(=O)(=O)c3c(F)cccc3F)c2)n1 [Example 128]
< 0.1 | < 0.1 | CC(C)c1nc(-c2cccc(NS(=O)(=O)c3cccnc3)c2)c(-c2ccnc(Nc3ccc(N4CCOCC4)nc3)n2)s1 [Example 52]
0.1 to 1 | < 0.1 | CC(C)c1nc(-c2ccc(F)c(NS(=O)(=O)c3c(F)cccc3F)c2)c(-c2ccnc(Nc3ccc(N4CCN(CCF)CC4)c(F)c3)n2)s1 [Example 25]
< 0.1 | < 0.1 | O=S1(=O)Cc2ccc(Nc3nccc(-c4sc(N5CCOCC5)nc4-c4cccc(NS(=O)(=O)c5c(F)cccc5F)c4F)n3)cc2C1 [Example 155]
0.1 to 1 | < 0.1 | CC(=O)N1CCN(c2ccc(Nc3nccc(-c4sc(C(C)C)nc4-c4cccc(NS(=O)(=O)C5CCCCC5)c4)n3)cn2)CC1 [Example 39]
< 0.1 | < 0.1 | CC(C)c1nc(-c2cccc(NS(=O)(=O)c3ccccc3)c2)c(-c2ccnc(Nc3ccc(N4CCOCC4)nc3)n2)s1 [Example 8, N-{3-[2-(1-Methylethyl)-5-(2-{[6-(4-morpholinyl)-3-pyridinyl]amino}-4-pyrimidinyl)-1,3-thiazol-4-yl]phenyl}benzenesulfonamide hydrochloride]
0.1 to 1 | < 0.1 | CN(C)c1nc(-c2ccc(F)c(NS(=O)(=O)c3c(F)cccc3F)c2)c(-c2ccnc(Nc3ccc(N4CCN(S(C)(=O)=O)CC4)nc3)n2)s1 [Example 112]
0.1 to 1 | < 0.1 | Cc1nc(Cl)sc1S(=O)(=O)Nc1cccc(-c2nc(C(C)C)sc2-c2ccnc(Nc3ccc(N4CCOCC4)nc3)n2)c1 [Example 42]
0.1 to 1 | < 0.1 | CCc1nc(-c2cccc(CNS(=O)(=O)c3ccccc3)c2)c(-c2ccnc(Nc3ccc(N4CCOCC4)c(F)c3)n2)s1 [Example 34]
< 0.1 | < 0.1 | CC(C)c1nc(-c2ccc(F)c(NS(=O)(=O)c3c(F)cccc3F)c2)c(-c2ccnc(Nc3ccc(N4CCC(C#N)CC4)nc3)n2)s1 [Example 24, N-{5-[5-(2-{[6-(4-Cyano-1-piperidinyl)-3-pyridinyl]amino}-4-pyrimidinyl)-2-(1-methylethyl)-1,3-thiazol-4-yl]-2-fluorophenyl}-2,6-difluorobenzenesulfonamide]
< 0.1 | < 0.1 | CC(=O)N1CCN(c2ccc(Nc3nccc(-c4sc(C(C)C)nc4-c4cccc(NS(=O)(=O)c5ccc(F)cc5)c4)n3)cn2)CC1 [Example 10, N-{3-[5-(2-{[6-(4-Acetyl-1-piperazinyl)-3-pyridinyl]amino}-4-pyrimidinyl)-2-(1-methylethyl)-1,3-thiazol-4-yl]phenyl}-4-fluorobenzenesulfonamide]
